Test [1] addresses T1, GtfB (Streptococcus mutans, UniProt P08987). Description: SDS-PAGE in-gel zymographic glucan-production assay at […]. The class given is cell-based. Details: native GtfB from culture supernatant of S. mutans GtfCD double mutant. The note with it: read-out: % inhibition at 25 μM.
Target sequence in this assay (P08987 35-1476): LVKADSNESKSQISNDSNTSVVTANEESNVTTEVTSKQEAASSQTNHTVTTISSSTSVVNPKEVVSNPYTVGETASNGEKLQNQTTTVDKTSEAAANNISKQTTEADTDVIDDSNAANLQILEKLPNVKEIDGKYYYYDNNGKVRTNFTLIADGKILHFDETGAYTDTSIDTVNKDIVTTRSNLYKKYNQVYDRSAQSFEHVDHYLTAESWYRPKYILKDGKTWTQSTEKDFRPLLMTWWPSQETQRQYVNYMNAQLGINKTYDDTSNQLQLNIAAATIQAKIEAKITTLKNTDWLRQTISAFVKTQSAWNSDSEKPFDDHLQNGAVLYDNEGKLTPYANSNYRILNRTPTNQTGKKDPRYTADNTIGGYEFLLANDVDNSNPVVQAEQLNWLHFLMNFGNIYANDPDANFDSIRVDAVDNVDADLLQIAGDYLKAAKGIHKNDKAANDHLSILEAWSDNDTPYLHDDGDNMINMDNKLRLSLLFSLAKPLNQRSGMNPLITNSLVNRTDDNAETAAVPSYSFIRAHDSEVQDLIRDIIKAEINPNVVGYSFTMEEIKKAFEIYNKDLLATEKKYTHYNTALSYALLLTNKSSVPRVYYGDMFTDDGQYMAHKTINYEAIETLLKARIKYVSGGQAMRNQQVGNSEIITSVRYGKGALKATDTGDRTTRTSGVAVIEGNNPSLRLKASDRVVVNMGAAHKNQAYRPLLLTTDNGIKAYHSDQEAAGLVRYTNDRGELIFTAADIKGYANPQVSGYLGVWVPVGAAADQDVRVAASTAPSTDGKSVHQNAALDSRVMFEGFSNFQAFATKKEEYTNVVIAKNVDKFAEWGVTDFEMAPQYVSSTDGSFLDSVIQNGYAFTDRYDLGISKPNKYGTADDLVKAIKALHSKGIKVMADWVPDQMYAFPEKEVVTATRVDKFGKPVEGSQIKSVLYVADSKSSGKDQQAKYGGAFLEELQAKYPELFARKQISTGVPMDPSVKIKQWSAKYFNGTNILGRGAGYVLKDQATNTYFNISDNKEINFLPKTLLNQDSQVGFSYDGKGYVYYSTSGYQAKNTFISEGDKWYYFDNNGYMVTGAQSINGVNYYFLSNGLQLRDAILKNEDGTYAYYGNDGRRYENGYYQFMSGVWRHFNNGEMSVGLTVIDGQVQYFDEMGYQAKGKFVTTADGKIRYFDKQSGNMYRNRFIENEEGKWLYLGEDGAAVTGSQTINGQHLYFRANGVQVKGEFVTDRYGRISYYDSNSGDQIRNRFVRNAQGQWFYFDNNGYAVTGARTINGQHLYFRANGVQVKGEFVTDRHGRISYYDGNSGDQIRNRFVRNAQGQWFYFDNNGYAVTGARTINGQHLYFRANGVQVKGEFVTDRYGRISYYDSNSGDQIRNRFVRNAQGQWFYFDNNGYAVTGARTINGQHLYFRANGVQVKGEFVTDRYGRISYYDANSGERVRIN
Test [2] concerns the target T2, GtfC (Streptococcus mutans, UniProt P13470). The description is as above. The class given is cell-based. Also on record: native GtfC from culture supernatant of S. mutans GtfBD double mutant. The note with it: read-out: % inhibition at 25 μM.
Target sequence in this assay (P13470 35-1455): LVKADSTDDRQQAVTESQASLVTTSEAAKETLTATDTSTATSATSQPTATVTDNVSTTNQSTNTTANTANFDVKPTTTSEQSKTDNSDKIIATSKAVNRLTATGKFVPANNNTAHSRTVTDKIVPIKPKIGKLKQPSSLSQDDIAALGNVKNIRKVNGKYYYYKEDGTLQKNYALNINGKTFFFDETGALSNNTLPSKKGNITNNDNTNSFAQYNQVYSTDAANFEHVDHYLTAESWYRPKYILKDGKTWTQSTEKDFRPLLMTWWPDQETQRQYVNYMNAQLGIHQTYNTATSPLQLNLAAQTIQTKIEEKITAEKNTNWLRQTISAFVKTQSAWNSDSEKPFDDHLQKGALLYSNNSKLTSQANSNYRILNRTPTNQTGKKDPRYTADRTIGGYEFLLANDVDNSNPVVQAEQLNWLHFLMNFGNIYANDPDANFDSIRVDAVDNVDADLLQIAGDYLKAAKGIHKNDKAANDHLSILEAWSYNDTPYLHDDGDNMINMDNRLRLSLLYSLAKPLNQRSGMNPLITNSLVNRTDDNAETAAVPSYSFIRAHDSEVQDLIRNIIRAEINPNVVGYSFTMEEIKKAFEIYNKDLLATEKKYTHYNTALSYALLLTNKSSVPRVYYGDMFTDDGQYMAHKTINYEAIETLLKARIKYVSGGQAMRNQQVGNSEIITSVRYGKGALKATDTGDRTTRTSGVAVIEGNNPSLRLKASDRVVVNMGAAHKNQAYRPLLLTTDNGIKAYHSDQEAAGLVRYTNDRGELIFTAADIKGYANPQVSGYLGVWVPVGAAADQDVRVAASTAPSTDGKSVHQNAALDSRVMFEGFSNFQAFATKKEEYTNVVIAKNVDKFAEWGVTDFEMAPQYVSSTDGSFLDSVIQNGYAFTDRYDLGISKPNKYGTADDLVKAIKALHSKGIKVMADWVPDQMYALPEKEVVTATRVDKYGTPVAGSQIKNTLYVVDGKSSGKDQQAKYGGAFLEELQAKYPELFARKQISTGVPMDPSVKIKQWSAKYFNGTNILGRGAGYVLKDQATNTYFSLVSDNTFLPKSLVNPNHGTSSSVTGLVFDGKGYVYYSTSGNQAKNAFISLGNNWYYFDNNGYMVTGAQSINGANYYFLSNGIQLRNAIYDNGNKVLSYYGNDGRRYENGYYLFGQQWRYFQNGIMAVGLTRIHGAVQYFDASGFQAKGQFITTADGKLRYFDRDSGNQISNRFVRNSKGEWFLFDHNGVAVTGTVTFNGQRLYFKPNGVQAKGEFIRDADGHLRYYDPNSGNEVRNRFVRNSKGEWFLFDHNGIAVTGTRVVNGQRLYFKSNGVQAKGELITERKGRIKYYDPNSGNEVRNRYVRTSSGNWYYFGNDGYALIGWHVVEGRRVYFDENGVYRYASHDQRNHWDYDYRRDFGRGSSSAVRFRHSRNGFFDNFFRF
Test [3] has as its target T1, GtfB. Description: Binding study (Octet, details in supplement); weak inactive analog. Details: catalytic domain, residues 268 aa–1074 aa.
Target sequence in this assay (P08987 268-1074): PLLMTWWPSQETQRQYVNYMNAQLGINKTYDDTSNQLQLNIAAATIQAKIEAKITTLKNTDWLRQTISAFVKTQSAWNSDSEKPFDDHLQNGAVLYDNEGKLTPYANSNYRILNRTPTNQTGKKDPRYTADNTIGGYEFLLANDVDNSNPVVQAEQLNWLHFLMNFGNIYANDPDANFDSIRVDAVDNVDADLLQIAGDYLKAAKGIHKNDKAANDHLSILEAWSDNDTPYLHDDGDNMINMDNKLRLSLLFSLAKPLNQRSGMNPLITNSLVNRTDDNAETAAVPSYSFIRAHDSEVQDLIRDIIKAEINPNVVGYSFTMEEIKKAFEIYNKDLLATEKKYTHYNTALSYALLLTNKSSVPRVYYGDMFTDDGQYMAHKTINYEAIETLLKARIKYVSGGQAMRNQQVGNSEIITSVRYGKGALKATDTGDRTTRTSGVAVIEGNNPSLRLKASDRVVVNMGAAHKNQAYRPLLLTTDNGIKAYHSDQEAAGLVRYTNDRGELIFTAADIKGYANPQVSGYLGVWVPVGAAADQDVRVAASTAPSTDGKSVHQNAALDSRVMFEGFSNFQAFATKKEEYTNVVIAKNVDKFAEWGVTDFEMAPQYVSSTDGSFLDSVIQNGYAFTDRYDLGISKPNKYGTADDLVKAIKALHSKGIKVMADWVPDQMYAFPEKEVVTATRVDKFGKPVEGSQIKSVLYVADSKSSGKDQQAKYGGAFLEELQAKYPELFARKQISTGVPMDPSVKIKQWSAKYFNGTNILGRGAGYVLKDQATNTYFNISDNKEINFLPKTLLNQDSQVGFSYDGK
Test [4] addresses T2, GtfC. Nature of the test: Bio-layer interferometry (OctetRed96), […] binding model; supported by zymographic inhibition ([…] at […]). Also on record: his-tagged catalytic domain, residues 295 aa–1103 aa.
Target sequence in this assay (P13470 295-1103): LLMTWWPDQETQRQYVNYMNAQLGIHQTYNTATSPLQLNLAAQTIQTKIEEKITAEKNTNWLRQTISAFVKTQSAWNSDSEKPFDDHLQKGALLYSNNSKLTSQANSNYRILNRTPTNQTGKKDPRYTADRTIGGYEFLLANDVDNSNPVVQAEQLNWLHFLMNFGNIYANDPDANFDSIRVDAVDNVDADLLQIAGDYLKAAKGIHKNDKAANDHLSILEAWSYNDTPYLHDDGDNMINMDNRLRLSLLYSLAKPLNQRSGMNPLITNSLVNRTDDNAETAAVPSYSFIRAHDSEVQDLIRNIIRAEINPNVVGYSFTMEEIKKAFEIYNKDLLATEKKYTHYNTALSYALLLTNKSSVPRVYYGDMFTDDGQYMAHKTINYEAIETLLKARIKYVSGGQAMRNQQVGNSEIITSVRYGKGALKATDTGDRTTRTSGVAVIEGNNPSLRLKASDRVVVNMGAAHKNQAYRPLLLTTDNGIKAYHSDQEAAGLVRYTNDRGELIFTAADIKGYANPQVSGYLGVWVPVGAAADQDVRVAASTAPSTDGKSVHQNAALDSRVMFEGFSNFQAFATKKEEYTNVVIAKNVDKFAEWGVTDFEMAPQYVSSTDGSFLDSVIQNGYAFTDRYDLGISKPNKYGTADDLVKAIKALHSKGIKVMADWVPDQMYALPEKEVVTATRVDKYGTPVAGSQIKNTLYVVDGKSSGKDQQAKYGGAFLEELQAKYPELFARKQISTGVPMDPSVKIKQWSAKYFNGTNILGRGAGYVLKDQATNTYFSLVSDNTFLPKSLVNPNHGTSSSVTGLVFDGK
Test [5] concerns the target T1, GtfB. The test is described as above. Also on record: his-tagged catalytic domain, residues 268 aa–1074 aa.
Target sequence in this assay (P08987 268-1074): as the sequence (P08987 268-1074) above

In the case of `O=C(c1ccc(F)cc1)c1ccc(-c2[nH]c(-c3ccc([N+](=O)[O-])cc3O)nc2-c2ccccc2)cc1` [#G16], the inhibition at 25 µM at GtfB [1] was approximately 60%; on GtfC [2], approximately 70%.
Take `O=C(Nc1ccccc1)c1cc2cc([N+](=O)[O-])ccc2s1` [#G43-D]: the Kd at GtfB [3] turned out to be 68 µM.
With `NC(=O)c1ccccc1NC(=O)c1cc2cc([N+](=O)[O-])ccc2s1` [#G43], the results for the dissociation constant Kd at GtfC [4] and at GtfB [5] were 0.0469 µM and 3.7 µM, respectively.

For the origin of these results see article PMC5519559, “Structure-Based Discovery of Small Molecule Inhibitors of Cariogenic Virulence” (Scientific Reports, 2017).
